Results from PubChem BioAssay (NCI).
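Grown in 96-well plates, cells were treated for 48 hours with each compound at five concentrations. Insufficient inhibition: endpoint recorded as highest concentration tested. At the GI50, growth is halved. The concentration for full growth arrest is given as TGI.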

Legend:
Assay in all cases: NCI-60 cell line screen, 48 h
[1] = tested on: 786-0 renal
[2] = tested on: A498 renal
[3] = tested on: A549 NSCLC
[4] = tested on: ACHN renal
[5] = tested on: BT-549 breast
[6] = tested on: CAKI-1 renal
[7] = tested on: CCRF-CEM leukemia
[8] = tested on: COLO 205 colon
[9] = tested on: DU-145 prostate
[10] = tested on: HCC-2998 colon
[11] = tested on: HCT-116 colon
[12] = tested on: HCT-15 colon
[13] = tested on: HL-60(TB) leukemia
[14] = tested on: HOP-62 NSCLC
[15] = tested on: HOP-92 NSCLC
[16] = tested on: HS 578T breast
[17] = tested on: HT29 colon
[18] = tested on: IGROV1 ovarian
[19] = tested on: K-562 leukemia
[20] = tested on: KM12 colon
[21] = tested on: LOX IMVI melanoma
[22] = tested on: M14 melanoma
[23] = tested on: MALME-3M melanoma
[24] = tested on: MCF7 breast
[25] = tested on: MDA-MB-231 breast
[26] = tested on: MDA-MB-435
[27] = tested on: MDA-N
[28] = tested on: NCI-H226 lung
[29] = tested on: NCI-H23 lung
[30] = tested on: NCI-H460 lung
[31] = tested on: NCI-H522 lung
[32] = tested on: NCI/ADR-RES ovarian
[33] = tested on: OVCAR-3 ovarian
[34] = tested on: OVCAR-4 ovarian
[35] = tested on: OVCAR-5 ovarian
[36] = tested on: OVCAR-8 ovarian
[37] = tested on: PC-3 prostate
[38] = tested on: RPMI-8226 leukemia
[39] = tested on: RXF 393 renal
[40] = tested on: SF-268 CNS
[41] = tested on: SF-295 CNS
[42] = tested on: SF-539 CNS
[43] = tested on: SK-MEL-2 melanoma
[44] = tested on: SK-MEL-28 melanoma
[45] = tested on: SK-MEL-5 melanoma
[46] = tested on: SK-OV-3 ovarian
[47] = tested on: SN12C renal
[48] = tested on: SNB-19 CNS
[49] = tested on: SNB-75 CNS
[50] = tested on: SR leukemia
[51] = tested on: SW-620 colon
[52] = tested on: T-47D breast
[53] = tested on: TK-10 renal
[54] = tested on: U251 CNS
[55] = tested on: UACC-257 melanoma
[56] = tested on: UACC-62 melanoma
[57] = tested on: UO-31 renal
[58] = tested on: EKVX NSCLC
[59] = tested on: MOLT-4 leukemia

O=C(O)CCC1(C(=O)O)CCC(=O)c2ccccc21 (stereo not drawn)
TGI [1]: > 100 µM
TGI [2]: > 100 µM
TGI [3]: > 100 µM
TGI [4]: > 100 µM
TGI [5]: > 100 µM
TGI [6]: > 100 µM
TGI [7]: > 100 µM
TGI [8]: > 100 µM
TGI [9]: > 100 µM
TGI [10]: > 100 µM
TGI [11]: > 100 µM
TGI [12]: > 100 µM
TGI [13]: > 100 µM
TGI [14]: > 100 µM
TGI [15]: > 100 µM
TGI [16]: > 100 µM
TGI [17]: > 100 µM
TGI [18]: > 100 µM
TGI [19]: > 100 µM
TGI [20]: > 100 µM
TGI [21]: > 100 µM
TGI [22]: > 100 µM
TGI [23]: > 100 µM
TGI [24]: > 100 µM
TGI [25]: > 100 µM
TGI [26]: > 100 µM
TGI [27]: > 100 µM
TGI [28]: > 100 µM
TGI [29]: > 100 µM
TGI [30]: > 100 µM
TGI [31]: > 100 µM
TGI [32]: > 100 µM
TGI [33]: > 100 µM
TGI [34]: > 100 µM
TGI [35]: > 100 µM
TGI [36]: > 100 µM
TGI [37]: > 100 µM
TGI [38]: > 100 µM
TGI [39]: > 100 µM
TGI [40]: > 100 µM
TGI [41]: > 100 µM
TGI [42]: > 100 µM
TGI [43]: > 100 µM
TGI [44]: > 100 µM
TGI [45]: > 100 µM
TGI [46]: > 100 µM
TGI [47]: > 100 µM
TGI [48]: > 100 µM
TGI [49]: > 100 µM
TGI [50]: > 100 µM
TGI [51]: > 100 µM
TGI [52]: > 100 µM
TGI [53]: > 100 µM
TGI [54]: > 100 µM
TGI [55]: > 100 µM
TGI [56]: > 100 µM
TGI [57]: > 100 µM

CCCCCC[n+]1noc(N)c1-c1ccc(-c2c(N)on[n+]2CCCCCC)cc1
GI50 [1]: 1.61 µg/mL
TGI [1]: 3.32 µg/mL
GI50 [2]: 6.03 µg/mL
TGI [2]: 16 µg/mL
GI50 [3]: 5.25 µg/mL
TGI [3]: 13.9 µg/mL
GI50 [4]: 7.74 µg/mL
TGI [4]: 20.7 µg/mL
GI50 [5]: 3.83 µg/mL
TGI [5]: 14 µg/mL
GI50 [6]: 2.18 µg/mL
TGI [6]: 5.22 µg/mL
GI50 [7]: 5.09 µg/mL
TGI [7]: 10.1 µg/mL
GI50 [8]: 1.66 µg/mL
TGI [8]: 3.58 µg/mL
GI50 [9]: 9.82 µg/mL
TGI [9]: 24.4 µg/mL
GI50 [58]: 7.71 µg/mL
TGI [58]: 23.2 µg/mL
GI50 [10]: 1.45 µg/mL
TGI [10]: 2.79 µg/mL
GI50 [11]: 3.97 µg/mL
TGI [11]: 14.3 µg/mL
GI50 [12]: 2.59 µg/mL
TGI [12]: 8.72 µg/mL
GI50 [13]: 1.61 µg/mL
TGI [13]: 3.07 µg/mL
GI50 [14]: 7.64 µg/mL
TGI [14]: 20.6 µg/mL
GI50 [15]: 1.09 µg/mL
TGI [15]: 5.91 µg/mL
GI50 [16]: 2.13 µg/mL
TGI [16]: 5.06 µg/mL
GI50 [17]: 1.85 µg/mL
TGI [17]: 4.01 µg/mL
GI50 [18]: 6.74 µg/mL
TGI [18]: 20.4 µg/mL
GI50 [19]: 1.79 µg/mL
TGI [19]: 3.8 µg/mL
GI50 [20]: 3.97 µg/mL
TGI [20]: 14.6 µg/mL
GI50 [21]: 1.95 µg/mL
TGI [21]: 4.21 µg/mL
GI50 [22]: 1.9 µg/mL
TGI [22]: 3.43 µg/mL
GI50 [23]: 1.81 µg/mL
TGI [23]: 3.33 µg/mL
GI50 [24]: 1.97 µg/mL
TGI [24]: 4.1 µg/mL
GI50 [25]: 3.3 µg/mL
TGI [25]: 9.87 µg/mL
GI50 [26]: 1.76 µg/mL
TGI [26]: 3.23 µg/mL
GI50 [27]: 1.78 µg/mL
TGI [27]: 3.48 µg/mL
GI50 [59]: 2.36 µg/mL
TGI [59]: 7.33 µg/mL
GI50 [28]: 14.2 µg/mL
TGI [28]: 28.2 µg/mL
GI50 [29]: 14.1 µg/mL
TGI [29]: 27.9 µg/mL
GI50 [30]: 2.03 µg/mL
TGI [30]: 4.7 µg/mL
GI50 [31]: 1.99 µg/mL
TGI [31]: 3.69 µg/mL
GI50 [32]: 12.5 µg/mL
TGI [32]: 25.6 µg/mL
GI50 [33]: 12.7 µg/mL
TGI [33]: 26.1 µg/mL
GI50 [34]: 2.62 µg/mL
TGI [34]: 14.9 µg/mL
GI50 [35]: 5.54 µg/mL
TGI [35]: 14.6 µg/mL
GI50 [36]: 2.6 µg/mL
TGI [36]: 9.53 µg/mL
GI50 [37]: 3.46 µg/mL
TGI [37]: 16.8 µg/mL
GI50 [38]: 1.98 µg/mL
TGI [38]: 4.71 µg/mL
GI50 [40]: 7.82 µg/mL
TGI [40]: 22.4 µg/mL
GI50 [41]: 1.88 µg/mL
TGI [41]: 3.73 µg/mL
GI50 [42]: 1.77 µg/mL
TGI [42]: 3.42 µg/mL
GI50 [43]: 1.61 µg/mL
TGI [43]: 3.1 µg/mL
GI50 [44]: 1.69 µg/mL
TGI [44]: 3.13 µg/mL
GI50 [45]: 1.66 µg/mL
TGI [45]: 3.04 µg/mL
GI50 [46]: 3.37 µg/mL
TGI [46]: 11 µg/mL
GI50 [47]: 6.2 µg/mL
TGI [47]: 17.3 µg/mL
GI50 [48]: 9.62 µg/mL
TGI [48]: 22.8 µg/mL
GI50 [49]: 3.41 µg/mL
TGI [49]: 11.3 µg/mL
GI50 [50]: 1.89 µg/mL
TGI [50]: 4.87 µg/mL
GI50 [51]: 2.32 µg/mL
TGI [51]: 6.14 µg/mL
GI50 [52]: 2.49 µg/mL
TGI [52]: 6.28 µg/mL
GI50 [53]: 2.81 µg/mL
TGI [53]: 8.51 µg/mL
GI50 [54]: 1.71 µg/mL
TGI [54]: 3.47 µg/mL
GI50 [55]: 1.73 µg/mL
TGI [55]: 3.34 µg/mL
GI50 [56]: 1.94 µg/mL
TGI [56]: 3.51 µg/mL
GI50 [57]: 1.89 µg/mL
TGI [57]: 4.46 µg/mL
